The target in one data set is T1, recombinant caspase 3 (Homo sapiens, UniProt P42574).
T1 construct: His tag (C); made in house; host or cells: E. coli
T1 sequence (P42574 29-175 limits assumed): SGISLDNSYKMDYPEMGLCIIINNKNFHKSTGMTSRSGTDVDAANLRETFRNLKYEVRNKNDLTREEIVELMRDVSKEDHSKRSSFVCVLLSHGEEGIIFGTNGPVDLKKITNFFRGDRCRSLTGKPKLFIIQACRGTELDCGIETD
T1 sequence (P42574 176-277 limits assumed): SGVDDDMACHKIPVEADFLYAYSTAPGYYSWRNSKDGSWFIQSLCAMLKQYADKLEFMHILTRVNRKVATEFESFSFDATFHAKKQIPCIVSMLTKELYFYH
In words: Caspase 3 Inhibition Assay (Ac-DEVD-AFC fluorogenic substrate cleavage). Format: biochemical. Particulars: pH 7.2, 23° C.; for IC50: recombinant caspase 3 0.25 nM, Ac-DEVD-AFC 25 μM; for inhibition at 50 µM: @ 50 μM compound. How it is done: Caspase 3 was expressed intracellularly in E. coli with a c-terminal His tag. Fermentation was performed at 25° C. in a B. Braun Biotech Biostat C 10 liter bioreactor vessel. The culture was collected in IL bottles and centrifuged in Komspin KA-7.1000 rotors at approximately 8000 RCF (Relative Centrifugal Force). The cell pellets were re-suspended in 20 mM Tris pH 8.0, 500 mM NaCl, and 5 mM imidazole. The cell suspension was disrupted by passing 5 times through a microfluidizer Model 110Y (Microfluidics Corp, Newton, Mass). After centrifugation (13 kg, 30 min at 4 C), the supernatant was applied to a column of Nickle-NTA agarose. The Caspase 3 was eluted with a gradient of 5 mM to 150 mM imidazole in the above buffer. Fractions containing Caspase 3 were pooled and concentrated with a Millipore Ultrafree filtration device. The concentrated Caspase 3 solution was loaded unto a TSK gel G3000sw column (Tosoh Bioseph LLC), equilibrated with a buffer of 20 mM PIPES pH 7.2, 100 mM NaCl, 1 mM EDTA & 5 mM Cysteine. Fractions containing Caspase 3 were pooled and concentrated. Sometimes CHAPS was added to 0.1% and sucrose to 10% into the protein sample.
Caspase 3 was assayed at 23° C. (room temp) in 96-well plates using the internally quenched tetrapeptide substrate N-acetyl-aspartyl-glutamyl-valyl-aspartate-7-amino-4-trifluoromethyl coumarin (Ac-DEVD-AFC purchased from Biomol). The assays are conducted at pH 7.2 in a buffered system containing 20 mM PIPES, 100 mM NaCl, 1 mM EDTA, 0.1% CHAPS, 10% sucrose and 5 mM L-cysteine. […] A steady state rate of substrate cleavage is obtained for analysis.
The progress curves generated were fitted by computer to equation 1 to generate an IC50 value. Equation 1: y=Bmax*(1−(x^n/(K^n+x^n))), where Bmax is rate in the absence of inhibitor.

[1] abbreviates: recombinant caspase 3, Ac-DEVD-AFC 25 μM, read-out: percent inhibition at the highest compound concentration.

The structures appear in SMILES notation. Where a name gives a salt, the structure may show the parent alone.

Regarding `Nc1cc2c(cc1Cl)N1CCCN=C1C2=O` [Example 16, 8-Amino-7-chloro-3,4-dihydropyrimido[1,2-a]indol-10(2H)-one], the melting point was more than 270 °C.

With `COc1ccc2c(c1)C(=O)C1=NCCCN12` (hydrate or solvate) [Example 11, 8-Methoxy-3,4-dihydropyrimido[1,2-a]indol-10(2H)-one], the melting point was found to be 152 °C.

With `O=C(Nc1ccc2c(c1)C(=O)C1=NCCCN12)c1ccccc1` (as salt: trifluoroacetic acid salt) [Example 17, N-(10-Oxo-2,3,4,10-tetrahydropyrimido[1,2-a]indol-8-yl)benzamide trifluoroacetic acid salt], the melting point is 155 to 168 °C.

`CC1(C)CN=C2C(=O)c3cc(S(=O)(=O)N4CCc5ccccc54)ccc3N2C1` [Example 32, 8-(2,3-Dihydro-1H-indol-1-ylsulfonyl)-3,3-dimethyl-3,4-dihydropyrimido[1,2-a}indol-10(2H)-one] displayed a melting point of 169.8 to 170.8 °C. For the same compound, at recombinant caspase 3, the IC50 stood at 16 nM.

`COC[C@@H]1CCCN1S(=O)(=O)c1ccc2c(c1)C(=O)C1=NCC3(CCCC3)CN12` gave a melting point of 171.2 to 171.9 °C.

In the case of `Cc1ccc2c(c1)C(=O)C1=NCCCN12` (hydrate or solvate) [Example 10, 8-Methyl-3,4-dihydropyrimido[1,2-a]indol-10(2H)-one], the melting point lay within 163 to 164 °C.

Regarding `COC[C@@H]1CCCN1S(=O)(=O)c1ccc2c(c1)C(=O)C1=NCC(C)(C)CN12`, the melting point was in the range of 163 to 165 °C.

Take `O=C1C2=NCC3(CCCC3)CN2c2ccc(S(=O)(=O)N3CCC[C@H]3CN3CCOCC3)cc21` [Example 83, 8′-{[(2S)-2-(morpholin-4-ylmethyl)pyrrolidin-1-yl]sulfonyl}spiro[cyclopentane-1,3′-pyrimido[1,2-a]indol]-10′(2′H)-one]: the melting point was in the range of 162.9 to 163.6 °C. Besides, the IC50 at recombinant caspase 3 is 14 nM.

On to `COC[C@H]1CCCN1S(=O)(=O)c1ccc2c(c1)C(=O)C1=NCC(C)(C)CN12`, for which the melting point was in the range of 161 to 164 °C.

Take `O=C1C2=NCCCN2c2ccc(O)cc21` [Example 19, 8-Hydroxy-3,4-dihydropyrimido[1,2-a]indol-10(2H)-one]: the melting point is 265 °C (dec.). Further, the inhibition at 50 µM at recombinant caspase 3 (setting [1]) came to 2%.

The compound `CC1(C)CN=C2C(=O)c3cc(C#N)ccc3N2C1` (hydrate or solvate) [Example 20, 3,3-Dimethyl-10-oxo-2,3,4,10-tetrahydropyrimido[1,2-a]indole-8-carbonitrile] displayed a melting point of 178 to 184 °C.

With `CC1(C)CN=C2C(=O)c3cc(S(=O)(=O)N4CCCC4)ccc3N2C1` [Example 12, 3,3-Dimethyl-8-(pyrrolidin-1-ylsulfonyl)-3,4-dihydropyrimido[1,2-a]indol-10(2H)-one], the melting point is 200 to 201 °C. Moreover, the IC50 at recombinant caspase 3 turned out to be 9 nM.

Compound `COC[C@@H]1CCCN1S(=O)(=O)c1cc2c(cc1Cl)N1CCCN=C1C2=O` (hydrate or solvate) [Example 5, 7-Chloro-8-{[(2S)-2-(methoxymethyl)pyrrolidin-1-yl-]sulfonyl}-3,4-dihydropyrimido[1,2-a]indol-10(2H)-one] displayed a melting point of 127 to 130 °C.

For the compound `O=C1C2=NCCCN2c2ccc(F)cc21` [Example 18, 8-Fluoro-3,4-dihydropyrimido[1,2-a]indol-10(2H)-one], the melting point was in the range of 150 to 152 °C. The inhibition at 50 µM on recombinant caspase 3 (setting [1]) stood at 26%.

In turn, `O=C1C2=NCCCN2c2ccc(S(=O)(=O)N3CCC[C@H]3COc3ccccc3)cc21` [Example 3] returned a melting point of 159 to 160 °C.

`COC[C@@H]1Cc2ccccc2N1S(=O)(=O)c1ccc2c(c1)C(=O)C1=NCC(C)(C)CN12` [Example 33, 8-{[(2S)-2-(Methoxymethyl)-2,3-dihydro-1H-indol-1-yl]sulfonyl}-3,3-dimethyl-3,4-dihydropyrimido[1,2-a]indol-10(2H)-one] had a melting point of 173.4 to 175 °C. Further, the IC50 at recombinant caspase 3 turned out to be 555 nM.

For `CC1CCN=C2C(=O)c3cc(Br)ccc3N21` (stereo not drawn) [Example 13, 8-Bromo-4-methyl-3,4-dihydropyrimido[1,2-a]indol-10(2H)-one], the melting point lay in the range of 127 to 129 °C. Further, at recombinant caspase 3, the IC50 is 50000 nM.

For `CC1CCN2C(=N1)C(=O)c1cc(S(=O)(=O)N3CCCC3)ccc12` (stereo not drawn) [Example 87], the melting point was 152.5 to 153 °C. Also, the IC50 at recombinant caspase 3 worked out at 15 nM.

Take `COC[C@@H]1CCCN1S(=O)(=O)c1ccc2c(c1)C(=O)C1=NCCCN12` [Example 1, 8-{[(2S)-2-(Methoxymethyl)pyrrolidin-1-yl]sulfonyl}-3,4-dihydropyrimido[1,2-a]indol-10(2H)-one]: the melting point lay within 171 to 172 °C. Further, at recombinant caspase 3, the IC50 is 27 nM.

The compound `O=C1C2=NCCCN2c2cc(Cl)c([N+](=O)[O-])cc21` (hydrate or solvate) [Example 15, 7-Chloro-8-nitro-3,4-dihydropyrimido[1,2-a]indol-10(2H)-one] had a melting point of 152 to 165 °C.

On to `CNS(=O)(=O)c1ccc2c(c1)C(=O)C1=NCCCN12` [Example 7, N-Methyl-10-oxo-2,3,4,10-tetrahydropyrimido[1,2-a]indole-8-sulfonamide], for which the melting point was 170 to 183 °C (dec.). Further, the IC50 at recombinant caspase 3 was found to be 1270 nM.

In turn, `CC1(C)CN=C2C(=O)c3cc(Cl)ccc3N2C1` (hydrate or solvate) [Example 14, 8′-Chloro-3′,3′-dimethyl-3′,4′-dihydropyrimido[1,2-a]indol-10(2H)-one] had a melting point of 153 to 154 °C.

Take `O=C1C2=NCCCN2c2ccc(Br)cc21` [Example 9, 8-Bromo-3,4-dihydropyrimido[1,2-a]indol-10(2H)-one]: the melting point was 166 to 168 °C (dec.). The inhibition at 50 µM on recombinant caspase 3 (setting [1]) worked out at 72%.

Consider `CC1(C)CN=C2C(=O)c3cc(Cl)ccc3N2C1` [Example 14, 8′-Chloro-3′,3′-dimethyl-3′,4′-dihydropyrimido[1,2-a]indol-10(2H)-one], for which the IC50 at recombinant caspase 3 is 874 nM.

Consider `CC1(C)CN=C2C(=O)c3cc(S(=O)(=O)N4CCC[C@H]4COc4ccccc4)ccc3N2C1`, for which the melting point was 73 to 88 °C (dec.).

With `COC[C@@H]1CCCN1S(=O)(=O)c1cc2c(cc1Cl)N1CCCN=C1C2=O` [Example 5, 7-Chloro-8-{[(2S)-2-(methoxymethyl)pyrrolidin-1-yl-]sulfonyl}-3,4-dihydropyrimido[1,2-a]indol-10(2H)-one], at recombinant caspase 3, the IC50 was found to be 189 nM.

In the case of `CC1(C)CN=C2C(=O)c3cc(S(=O)(=O)N4CCC[C@H]4CO)ccc3N2C1` [Example 8, 8-{[(2S)-2-(Hydroxymethyl)pyrrolidin-1-yl]sulfonyl}-3,3-dimethyl-3,4-dihydropyrimido[1,2-a]indol-10(2H)-one], the melting point is 91 to 96 °C (dec.). In addition, the IC50 on recombinant caspase 3 was 25 nM.

Turning to `CC1(C)CN=C2C(=O)c3cc(C(=O)Nc4ccccc4)ccc3N2C1` [Example 76, 3,3-Dimethyl-10-oxo-N-phenyl-2,3,4,10-tetrahydropyrimido[1,2-a]indole-8-carboxamide], on recombinant caspase 3 (setting [1]), the inhibition at 50 µM was determined as 36%.

Take `COC[C@@H]1CCCN1C(=O)c1ccc2c(c1)C(=O)C1=NCC(C)(C)CN12` [Example 75, 8-{[(2S)-2-(Methoxymethyl)pyrrolidin-1-yl]carbonyl}-3,3-dimethyl-3,4-dihydropyrimido[1,2-a]indol-10(2H)-one]: the inhibition at 1 µM at recombinant caspase 3 (@ 1 μM compound, recombinant caspase 3, Ac-DEVD-AFC 25 μM, read-out: percent inhibition at the highest compound concentration) was 10%.

In the case of `Cc1ccc2c(c1)C(=O)C1=NCCCN12` [Example 10, 8-Methyl-3,4-dihydropyrimido[1,2-a]indol-10(2H)-one], the inhibition at 50 µM on recombinant caspase 3 (setting [1]) turned out to be 10%.

The record behind these values is patent publication US7256198B2, “Pyrimidoindolones and methods for using same” (Wyeth, priority 2004, dated 2007).
